pIC50, pKd, pKi: −log10 of the molar value.
Assays:
[1] = biological target: T1, Induced myeloid leukemia cell differentiation protein Mcl-1 (Homo sapiens, UniProt Q07820); assay: Binding affinity to fluorescent-labeled BH3 peptide from GST tagged MCL1 (172 to 320 residues) (unknown origin) expressed in Escherichia coli BL21 (DE3) incubated for 15 mins by fluorescence polarization-based competitive binding assay
[2] = test system: Human immunodeficiency virus 1; assay: Antiviral activity against HIV-1 pseudotyped virus expressing HXB-2 proteins infected in human TZM-bl cells assessed as inhibition of viral entry by luciferase based analysis; format: functional, organism-based; settings: Human immunodeficiency virus 1, TZM-bl
[3] = Binding affinity to TAR RNA assessed as dissociation constant
[4] = biological target: T2, Amyloid-beta precursor protein (Homo sapiens, UniProt P05067); assay: Binding affinity to amyloid beta 40 (unknown origin) by ITC method
T2 sequence (P05067 whole entry): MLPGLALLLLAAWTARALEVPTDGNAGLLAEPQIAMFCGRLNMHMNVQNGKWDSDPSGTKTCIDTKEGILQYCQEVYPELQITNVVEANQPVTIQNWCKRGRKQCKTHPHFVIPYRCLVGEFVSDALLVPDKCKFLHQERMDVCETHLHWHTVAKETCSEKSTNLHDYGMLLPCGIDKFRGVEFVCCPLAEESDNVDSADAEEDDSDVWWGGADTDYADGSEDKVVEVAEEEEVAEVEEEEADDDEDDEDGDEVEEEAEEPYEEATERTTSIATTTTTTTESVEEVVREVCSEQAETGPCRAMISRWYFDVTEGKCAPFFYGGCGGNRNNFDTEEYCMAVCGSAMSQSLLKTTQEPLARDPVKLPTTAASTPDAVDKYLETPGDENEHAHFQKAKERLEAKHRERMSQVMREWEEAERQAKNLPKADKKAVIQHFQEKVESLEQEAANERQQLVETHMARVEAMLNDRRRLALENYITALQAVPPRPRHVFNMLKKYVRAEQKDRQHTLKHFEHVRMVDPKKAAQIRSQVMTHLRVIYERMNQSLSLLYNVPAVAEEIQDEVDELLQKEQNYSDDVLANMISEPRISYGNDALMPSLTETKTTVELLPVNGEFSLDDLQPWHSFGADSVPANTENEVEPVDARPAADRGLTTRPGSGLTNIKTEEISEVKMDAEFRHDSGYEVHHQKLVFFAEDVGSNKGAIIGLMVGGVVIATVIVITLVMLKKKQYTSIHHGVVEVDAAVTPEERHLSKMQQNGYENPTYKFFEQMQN

N2a [5] = assay: Cytotoxicity against mouse N2a cells; format: functional, cell-based
SJSA-1 = assay: cells; settings: Homo sapiens
Trypanothione reductase = Trypanothione reductase (Leishmania infantum, UniProt A4HSF7); assay: Inhibition of Leishmania infantum TryR oxidoreductase activity expressed in Escherichia coli BL21 (DE3) using TS2 and NADPH as substrate by incubated for 10 mins followed by substrate addition by DTNB-reagent based spectrophotometric method
Chain of Trypanothione reductase (A4HSF7 whole entry): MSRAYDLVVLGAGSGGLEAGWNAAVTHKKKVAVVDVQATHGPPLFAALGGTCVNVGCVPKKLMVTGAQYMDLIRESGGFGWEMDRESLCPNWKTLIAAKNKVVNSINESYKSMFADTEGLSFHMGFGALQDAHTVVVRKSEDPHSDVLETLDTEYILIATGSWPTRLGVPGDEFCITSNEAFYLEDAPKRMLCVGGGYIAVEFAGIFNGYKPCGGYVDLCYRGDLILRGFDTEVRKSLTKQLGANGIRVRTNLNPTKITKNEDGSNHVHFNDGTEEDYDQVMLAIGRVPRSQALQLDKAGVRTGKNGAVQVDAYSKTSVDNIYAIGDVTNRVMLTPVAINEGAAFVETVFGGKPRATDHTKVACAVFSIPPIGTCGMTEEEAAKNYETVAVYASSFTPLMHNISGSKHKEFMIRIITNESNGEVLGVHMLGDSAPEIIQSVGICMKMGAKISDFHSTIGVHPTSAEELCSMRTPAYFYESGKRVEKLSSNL

[6] = biological target: T1, Induced myeloid leukemia cell differentiation protein Mcl-1; assay: Inhibition of FITC-labeled BH3 peptide binding to MCL1 (unknown origin)
N2a [7] = assay: Effect on mouse N2a cells assessed as rescue of amyloid beta toxicity; format: functional, cell-based
[8] = biological target: T2, Amyloid-beta precursor protein; assay: Binding affinity to amyloid beta 42 (unknown origin) assessed as dissociation constant
[9] = biological target: T1, Induced myeloid leukemia cell differentiation protein Mcl-1; assay: Displacement of fluorescent-labeled BH3 peptide from recombinant MCL1 (unknown origin) by fluorescence polarization-based competitive binding assay
[10] = biological target: Histone acetyltransferase p300/Hypoxia-inducible factor 1-alpha (Homo sapiens, UniProt Q09472+Q16665); assay: Inhibition of hypoxia-induced HIF1alpha/P300 interaction (unknown origin) incubated for 30 mins for fluorescence anisotropy competition assay; format: protein-complex assay
[11] = test system: Human immunodeficiency virus 1; assay: Antiviral activity against HIV1 RRE-Rev assessed as inhibition of viral replication; format: functional, organism-based
[12] = biological target: Myc proto-oncogene protein (Homo sapiens, UniProt P01106); assay: Binding affinity to c-MYC (unknown origin) assessed as dissociation constant
Chain of Myc proto-oncogene protein (P01106 whole entry): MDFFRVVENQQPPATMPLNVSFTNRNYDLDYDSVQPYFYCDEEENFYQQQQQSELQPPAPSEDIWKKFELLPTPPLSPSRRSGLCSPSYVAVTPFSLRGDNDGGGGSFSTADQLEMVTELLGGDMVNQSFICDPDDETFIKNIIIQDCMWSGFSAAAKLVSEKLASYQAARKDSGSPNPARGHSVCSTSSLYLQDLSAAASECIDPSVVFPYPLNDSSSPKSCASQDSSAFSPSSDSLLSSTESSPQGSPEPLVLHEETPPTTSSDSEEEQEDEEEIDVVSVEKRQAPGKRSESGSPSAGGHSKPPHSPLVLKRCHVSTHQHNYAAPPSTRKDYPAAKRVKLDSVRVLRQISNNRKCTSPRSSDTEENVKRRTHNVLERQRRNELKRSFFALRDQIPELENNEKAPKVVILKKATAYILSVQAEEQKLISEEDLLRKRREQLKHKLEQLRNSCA

[13] = Inhibition of Mcl-1/NoxaB (unknown origin) protein-protein interaction; parameters: species or system Homo sapiens
[14] = biological target: Tumour suppressor p53/oncoprotein Mdm2 (Homo sapiens, UniProt Q00987); assay: Inhibition of HDM2-p53 (unknown origin) protein-protein interaction; format: protein assay
Chain of Tumour suppressor p53/oncoprotein Mdm2 (P04637 whole entry): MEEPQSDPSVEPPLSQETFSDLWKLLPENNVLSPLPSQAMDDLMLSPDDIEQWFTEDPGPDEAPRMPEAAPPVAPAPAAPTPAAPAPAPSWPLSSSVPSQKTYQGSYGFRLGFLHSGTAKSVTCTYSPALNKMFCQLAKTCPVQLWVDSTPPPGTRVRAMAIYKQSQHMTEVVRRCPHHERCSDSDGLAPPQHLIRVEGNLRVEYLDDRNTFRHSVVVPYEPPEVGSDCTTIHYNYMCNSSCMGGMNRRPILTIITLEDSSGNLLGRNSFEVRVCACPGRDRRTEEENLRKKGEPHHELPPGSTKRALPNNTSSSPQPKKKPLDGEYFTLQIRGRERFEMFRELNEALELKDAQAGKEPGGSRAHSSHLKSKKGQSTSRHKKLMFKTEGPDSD
Chain of Tumour suppressor p53/oncoprotein Mdm2 (Q00987 whole entry): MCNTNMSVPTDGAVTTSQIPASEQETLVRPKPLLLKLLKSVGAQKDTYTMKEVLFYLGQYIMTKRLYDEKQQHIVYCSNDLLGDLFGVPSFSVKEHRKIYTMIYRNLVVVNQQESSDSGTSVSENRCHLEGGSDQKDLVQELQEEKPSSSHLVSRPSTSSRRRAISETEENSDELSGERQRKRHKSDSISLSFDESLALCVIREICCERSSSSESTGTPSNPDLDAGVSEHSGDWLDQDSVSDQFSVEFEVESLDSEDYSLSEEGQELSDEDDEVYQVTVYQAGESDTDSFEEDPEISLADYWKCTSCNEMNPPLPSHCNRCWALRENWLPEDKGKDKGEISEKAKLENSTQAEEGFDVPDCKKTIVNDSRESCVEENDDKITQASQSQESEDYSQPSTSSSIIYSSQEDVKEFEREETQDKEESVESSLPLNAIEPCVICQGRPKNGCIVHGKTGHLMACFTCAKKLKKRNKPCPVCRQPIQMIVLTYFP

[15] = biological target: T3, Islet amyloid polypeptide (Homo sapiens) (UniProt P10997); assay: Disruption of beta-fibrillation of IAPP (unknown origin) assessed as half life of protein
T3 sequence (whole entry): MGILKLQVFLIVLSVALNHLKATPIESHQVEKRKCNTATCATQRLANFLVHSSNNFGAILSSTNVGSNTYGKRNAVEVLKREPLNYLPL

[16] = biological target: T1, Induced myeloid leukemia cell differentiation protein Mcl-1; assay: Displacement of fluorescein tagged Bak BH3 peptide from MCL-1 (172 to 327 residues) (unknown origin) by fluorescence polarization competition assay
MDA-MB-231 = assay: Antitumor activity against human MDA-MB-231 cells xenografted in mouse assessed reduction in tumor volume measured for 30 days relative to control; format: functional; parameters: scale not given: the % may be the effect or the level left; settings: time 30 day
[17] = biological target: HIF1A/p300/CREB-binding protein (Homo sapiens, UniProt Q09472+Q16665+Q92793); assay: Binding affinity to hypoxia induced HIF-1 alpha/P300 CH1 domain (323 to 423 residues expressed in Escherichia coli (DE3)/CBP (unknown origin) interaction assessed as dissociation constant
[18] = Binding affinity to RNA S protein (unknown origin) assessed as dissociation constant by ITC method; parameters: species or system Homo sapiens

T1 sequence (Q07820 whole entry, the tested form may be a part): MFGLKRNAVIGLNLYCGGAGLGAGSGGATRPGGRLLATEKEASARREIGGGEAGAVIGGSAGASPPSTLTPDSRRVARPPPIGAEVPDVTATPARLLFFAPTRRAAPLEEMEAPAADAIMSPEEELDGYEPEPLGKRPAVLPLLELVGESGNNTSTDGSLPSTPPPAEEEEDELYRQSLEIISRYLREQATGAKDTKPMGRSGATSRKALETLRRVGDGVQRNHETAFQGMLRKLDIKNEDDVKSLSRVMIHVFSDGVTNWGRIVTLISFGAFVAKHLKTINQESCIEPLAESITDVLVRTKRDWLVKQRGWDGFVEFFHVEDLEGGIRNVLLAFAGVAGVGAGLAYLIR

## O=C(O)CCCNc1nc(NCCc2ccc(O)cc2)nc(N2CCN(c3nc(NCCC(=O)O)nc(Nc4ccc(Oc5ccccc5)cc4)n3)CC2Cc2ccccc2)n1 (stereo not drawn)
[1]
  pKi: 6.28

## NCCCOc1nc(C(=O)O)ccc1NC(=O)c1ccc(NC(=O)c2ccc([N+](=O)[O-])c(OCCCN)n2)c(OCCCN)n1
[2]
  pIC50: 4.60
[3]
  pKd: 5.39

## NCCCOc1nc(C(=O)O)ccc1NC(=O)c1ccc(NC(=O)c2ccc([N+](=O)[O-])c(OCc3ccccc3)n2)c(OCCCN)n1
[4]
  pKd: 6.15
N2a [5]
  pIC50: 5.85

## CC(C)[C@@H](CS(=O)(=O)C(C)C)N1C(=O)[C@@](C)(CC(=O)O)C[C@H](c2cccc(Cl)c2)[C@H]1c1ccc(Cl)cc1 [NAVTEMADLIN]
SJSA-1
  pIC50: 7.60

## CC(C)COc1nc(C(=O)Nc2ccc(C(=O)Nc3ccc(C(=O)Nc4ccc(C(=O)O)nc4OCC(=O)O)nc3OCC(=O)O)nc2OCc2ccccc2)ccc1[N+](=O)[O-]
N2a [5]
  pIC50: 5.60

## NCCNCc1cncn1-c1ccc(-c2nc(CCc3ccc4ccccc4c3)cs2)c(OCCN2CNCC2=O)c1
Trypanothione reductase
  pIC50: 5.29

## CC(C)(C)OC(=O)N(Cc1ccccc1)c1nc(NCC(=O)O)c2ncn(Cc3cccc4ccccc34)c2n1
[6]
  pIC50: 4.14

## CCC(C)Oc1cc(C(=O)Nc2cccc3c(OCC(=O)O)cc(C(=O)OC)nc23)nc2c(NC(=O)c3cc(OCC(=O)O)c4cccc(NC(=O)c5cc(OC(C)CC)c6cccc([N+](=O)[O-])c6n5)c4n3)cccc12 (stereo not drawn)
N2a [7]
  pIC50: 5.52
[8]
  pKd: 5.66

## Oc1ccc(CCNc2nc3nc(n2)N2CCN(CC2Cc2ccccc2)c2nc(nc(Nc4ccc(Oc5ccccc5)cc4)n2)NCCOCCOCCOCCOCCN3)cc1 (stereo not drawn)
[9]
  pKi: 5.59

## CC(C)COc1cc(C(=O)Nc2ccc(C(=O)O)cc2OC(C)C)ccc1NC(=O)c1ccc([N+](=O)[O-])c(OCC(C)C)c1
[10]
  pIC50: 5.04

## Cc1cc(-c2cc(CCN)ccc2CCN)c(C)cc1-c1cc(CCN)ccc1CCN
[11]
  pIC50: 4.33

## CC(C)COc1cc(C(=O)O)ccc1NC(=O)c1ccc([N+](=O)[O-])c(OCc2ccc3ccccc3c2)c1
[12]
  pKd: 5.00

## CC(C)Oc1cc(NC(=O)[C@H](Cc2ccccc2)NC(=O)c2ccc(N)c(OCc3ccccc3)c2)ccc1C(=O)NCC(=O)O
[13]
  pIC50: < 4.00
[14]
  pIC50: 4.92

## CC(C)C[C@H](NC(=O)c1ccc(NC(=O)[C@@H](N)Cc2ccccc2)c(OCCc2c[nH]c3ccccc23)c1)C(=O)O
[14]
  pIC50: 4.82

## COc1cc(CCN)c(-c2cc(C)c(-c3cc(CCN)c(OC)cc3CCN)cc2C)cc1CCN
[11]
  pIC50: 4.85

## CCCc1c(NC(=O)Nc2sccc2CCC(=O)O)ccc2sc(N(CCC(=O)O)C(=O)OCC)nc12
[15]
  T1/2: 23.1 h

## NCCNCc1cncn1-c1ccc(-c2nc(CCc3ccc(-c4ccccc4)cc3)cs2)c(OCCN2CNCC2=O)c1
Trypanothione reductase
  pIC50: 5.07

## Cc1cc(-c2ccc(C(=O)O)c(OCc3ccccc3)c2)cc(C)c1Cl
[16]
  pKi: 5.54

## CC(C)C[C@@H]1NCCN([C@@H](CC(C)C)C(=O)N2CCN([C@@H](CCC(N)=O)C(N)=O)C(=O)[C@@H]2C)C1=O
MDA-MB-231
  Activity: 50%
[17]
  pKd: 5.28

## CCC(C)CN(C(=O)c1ccc(N(Cc2ccc3ccccc3c2)C(=O)c2ccc(NCC(C)C)cc2)cc1)c1ccc(C(=O)N[C@H](C(=O)O)[C@H](C)CC)cc1 (stereo partly drawn)
[13]
  pIC50: 4.62
[14]
  pIC50: 5.03

## Oc1ccc(CCNc2nc3nc(n2)N2CCN(CC2Cc2ccccc2)c2nc(nc(Nc4ccc(Oc5ccccc5)cc4)n2)NCCOCCOCCOCCN3)cc1 (stereo not drawn)
[9]
  pKi: 5.59

## CC(C)Oc1cc(NC(=O)[C@H](Cc2ccccc2)NC(=O)c2ccc(N)c(OCc3ccc(Cl)cc3)c2)ccc1C(=O)NCC(=O)O
[18]
  pKd: 5.73

— ChEMBL document CHEMBL5241059, “Evolution in non-peptide α-helix mimetics on the road to effective protein-protein interaction modulators” (Eur J Med Chem, 2021)
